Laboratory results as given in patent US20090041719A1, “Method for screening therapeutic agent for glomerular disorder” (priority 2006, published 2009).
Values joined by “and” are separate entries in the source; they are usually repeats but may differ in a detail not shown here. Identical values can stand only once.

What was measured:
[1] = test system: rat unilateral ureteral obstruction release model; experiment: Rat unilateral ureteral obstruction release model: glomerular and tubulointerstitial lesions, Asc-1+ cells; assay type: in vivo, SD rat;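 on Tubulointerstitial lesion: atrophy of tubules associated with dilatation of tubules (score): ± very light + light ++ moderate +++ high change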;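 on Tubulointerstitial lesion: fibrosis of interstitial tissue (score): ± very light + light ++ moderate +++ high change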;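 on Tubulointerstitial lesion: thickness of basement membrane (score): ± very light + light ++ moderate +++ high change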
Excerpt: An experimental model was produced in accordance with the method devised and established by Ishibashi (Michio Ishibasi et al., Japanese Journal of Nephrology 42: 248, 2000), using a 8 to 9-week-old male SD rat weighing about 280 g. […] On day 14 after obstruction, the obstruction was released, and the urinary tract was reconstructed using a cuff. That is, 14 days later, the ligated ureteral obstruction part was partially removed, and a 25 gauge polyethylene tube (made by Nippon Sherwood) as a cuff was inserted from the lower normal ureteral stump and placed in the lumen. Next, the cuff was placed also in the expanded upper ureter, and both parts were ligated for fixation with a 7-0 nylon suture to reconstruct the urinary tract. At the same time, the right kidney was removed. The weight was measured after obstruction release, and the blood was collected on days 2, 5, and 7 after release for serum creatinine determination. On day 7, the rat was sacrificed under anesthesia and the left obstruction release kidney was removed. The weight of the removed kidney was measured, and the kidney pathomorphological examination was performed.
The biological effects of the test compound were studied in vivo using the model obtained in the above procedure 1). The test compound in the form of bulk powder was dissolved in sterilized physiologic saline together with gum arabic, where the concentration of the gum arabic was adjusted to 5% and the concentration of the test compound was adjusted to 30 mg/ml. The amount of 30 mg/kg was subcutaneously administered every day. Daily administration was continued for 21 days during 14 days of obstruction and 7 days after obstruction release. For controlled comparison, the solvent of 5% gum arabic was administered alone.
On day 22 from the administration of the test compound, the rat was sacrificed under anesthesia, and the left obstruction release kidney was removed and neutral formalin fixed. The fixed renal tissue embedded in paraffin was sliced into 4-micrometer-thick pieces for examination.
The tissue section was observed under a microscope in order to count the number of glomeruli and the number of glomeruli having a lesion (expansion of a tubular pole associated with swollen Bowman's capsule epithelial cells or hypertrophy of a Bowman's capsule basal membrane) in the field of view, and the number of glomeruli having the lesion (referred to as “lesioned glomerulus”) per 50 glomeruli was calculated.
As for the effectiveness to improve of glomerular lesions, when the number of lesioned glomeruli per 50 glomeruli was reduced to less than or equal to half the average number of those of the control group, it was determined as improved.
An affinity-purified anti-rat Asc-1 polyclonal antibody (rabbit) was prepared as follows: that is, in order to prepare an anti-Asc-1 peptide polyclonal antibody (rabbit), an oligopeptide (PSPLPITDKPLKTQC (SEQ. ID NO: 4)) corresponding to amino acid residues of 517-530 of Asc-1 was synthesized (see J Biol Chem (2000); 275: 9690-9698), keyhole limpet hemocyanine was bound to the C-terminal cysteine as an adjuvant, and […] was immunized therewith. The serum was collected on days 7 and 14 from the immunization. The serum was concentrated by means of an adsorption-dissociation operation using an affinity column to which an oligopeptide corresponding to amino acid residues of 517-530 of Asc-1 was bound in order to obtain an affinity-purified antibody having a protein content of 0.5 mg/ml. As for immunopathological examination, paraffin rat […] diluted with PBS to the optimal concentration was used.
The immune tissue staining was performed based on the protocol of Ventana HX system bench mark (Ventana Japan K.K., Tokyo) including the automated immunostaining device manufactured by Ventana Japan K.K. After deparaffinization, the tissue section was heat-treated at 100° C. for 1 hour. […]

4F2hc [2] = experiment: HAT heavy chain 4F2hc on large-monocyte fraction of LPS-stimulated human PBMC, peak value by FACScan (polyclonal antibody); assay type: cell-based
Protocol: In the same manner as in 1) to 5) of Experimental Example 1, to human peripheral blood mononuclear cells, the test compound (6-2) (final concentration: 10 nM) or the test compound (7-3) (final concentration: 100 nM) was added at the same time when LPS (final concentration: 80 μg/ml) was added, followed by 6-day culture. Further, in the same manner as above, using rabbit anti-human 4F2hc polyclonal antibodies (see Biol Pharm Bull 30:415-422, 2007) as a primary antibody, the peak value of HAT expressed on the fraction of large-macrophages (larger than monocyte macrophages) in human PBMC was measured by FACScan using a commercially available cell fix/cell membrane infiltration kit (trade name: BD Cytofix/Cytoperm™ Kit, catalog No. 554714, BD Biosciences).
As a control, the one with no test-compound addition was used, and as a rabbit anti-human rBAT (related to b^0,+-type amino acid transporter) polyclonal antibody, the one obtained by coupling a synthesized peptide composed of an amino-terminal of human rBAT (MAEDKSKRDSIEMSMKGC (SEQ ID NO: 2)) and a carboxyl-terminal of mouse b^0,+AT (BAT1) (CHLQMLEWPEKDPE (SEQ ID NO: 3)) to a carrier KLH (keyhole-limpet hemocyanin), and immunizing a rabbit with it.

[3] = test system: glomerular lesions; renal tubulointerstitial lesions; conditions: International Publication WO 2004/024185 and 01/72730 pamphlets; cited from earlier work
4F2hc [4] = experiment: 4F2hc on large-cell fraction of LPS-stimulated THP-1, peak value by FACScan; assay type: cell-based, human
Protocol: The same procedures as in Experimental Example 2 were taken except the following conditions: human leukemia culture cell line THP-1 was used instead of the human peripheral blood mononuclear cells; the final addition concentration of the test compound (6-2) was set to 100 nM, and the final addition concentration of the test compound (7-3) was set to 1000 nM; and fetal bovine serum was used instead of the human AB serum. The peak value of HAT expressed on the fraction of large-cells in human leukemia culture cell strain THP-1, compared with those not stimulated with LPS, was measured. As a control, the one with no test-compound addition was used, and the peak value of HAT was measured by FACScan using a commercially available cell fix/cell membrane infiltration kit (trade name: BD Cytofix/Cytopem™ Kit, catalog No. 554714, BD Bioscience).

[5] = group average ± standard deviation
[6] = individual animal, 30 mg/kg s.c. daily for 21 days, 30 mg/kg
[7] = individual animal, points: ± 0.5, + 1, ++ 2, +++ 3

## O=C1CCC(F)(C(=O)OCc2ccccc2)O1 (stereo not drawn) [Compound (6-2)]
[1]; [5]
  Glomerular lesion: number of lesioned glomeruli per 50 glomeruli, expansion of tubular pole associated with swollen Bowman's capsule epithelial cells: 3 ± 2 per 50 glomeruli
  Glomerular lesion: number of lesioned glomeruli per 50 glomeruli, hypertrophy of Bowman's capsule basal membrane: 7 ± 2 per 50 glomeruli
  Number of Asc-1+ cells per 50 glomeruli: 8.01 ± 1.96 per 50 glomeruli
  Tubulointerstitial lesion: atrophy of tubules associated with dilatation of tubules (score): 0.90 ± 0.3
  Tubulointerstitial lesion: fibrosis of interstitial tissue (score): 1.5 ± 0.6
  Tubulointerstitial lesion: thickness of basement membrane (score): 1.5 ± 0.6
  Tubulointerstitial lesion: total score: 3.9 ± 1.0
[1]; [6]
  Glomerular lesion: number of lesioned glomeruli per 50 glomeruli, expansion of tubular pole associated with swollen Bowman's capsule epithelial cells: 2 per 50 glomeruli (2×) and 5 per 50 glomeruli and 1 per 50 glomeruli
  Glomerular lesion: number of lesioned glomeruli per 50 glomeruli, hypertrophy of Bowman's capsule basal membrane: 6 per 50 glomeruli and 9 per 50 glomeruli and 5 per 50 glomeruli and 8 per 50 glomeruli
  Number of Asc-1+ cells per 50 glomeruli: 9.40 per 50 glomeruli and 9.05 per 50 glomeruli and 5.12 per 50 glomeruli and 8.47 per 50 glomeruli
[1]; individual animal, Yes = lesioned glomeruli per 50 glomeruli reduced to less than or equal to half the control average
  Improvement of glomerular lesion: Yes (3×) and No
[1]; individual animal, Yes = reduced to less than or equal to half the control average
  Improvement of tubulointerstitial lesion: No
[1]; [7]
  Tubulointerstitial lesion: atrophy of tubules associated with dilatation of tubules (score): 1 (3×) and 0.5
  Tubulointerstitial lesion: fibrosis of interstitial tissue (score): 1 (2×) and 2 (2×)
  Tubulointerstitial lesion: thickness of basement membrane (score): 1 (2×) and 2 (2×)
[1]; individual animal, sum of the three scores
  Tubulointerstitial lesion: total score: 3 (2×) and 4.5 and 5
[1]; summary of Table 5
  glomerular lesion (in words): selectively reduced
  uriniferous tubule lesion (in words): not reduced
[1]; versus control group
  Asc-1 positive cells in the glomeruli (in words): increased more significantly than in the control group
4F2hc [2]; human PBMC + LPS 80 μg/ml, 6-day culture, test compound 10 nM, solvent control 23
  Change in HAT expressed on large-monocyte fraction of human PBMC (peak value by FACScan), 4F2hc: 10
4F2hc [2]; human PBMC + LPS, summary of Table 2
  amount of 4F2hc in the heavy chain of HAT (in words): selectively decreased
[3]
  known action on glomerular lesions: selectively inhibit the glomerular lesions
4F2hc [4]; THP-1 + LPS 80 μg/ml, fetal bovine serum, test compound 100 nM, solvent control 12
  Change in HAT expressed on large-cell fraction of THP-1 (peak value by FACScan), 4F2hc: 25
4F2hc [4]; THP-1 + LPS, summary of Table 3
  amount of 4F2hc in the heavy chain of HAT (in words): remarkably changed
